Experimental findings from patent US20240052012A1, “PLATELET ALPHA-GRANULES FOR DELIVERY OF MULTIPLE PROTEINS” (CSTS Health Care Inc., priority 2021, published 2024) are described below.

Assay [1] concerns murine hemangioendothelioma cells (EOMA). The experiment in a line: Sequestration of bFGF by GAGs on EOMA cells. The class given is cell-based. Particulars: monolayer culture, standard or tumor conditioned media; FIG. 20. An excerpt:
FIG. 20 is a graph showing sequestration of growth factors by glycosaminoglycans (GAGs) on the surface of murine hemangioendothelioma cells (EOMA). Here, the cells growing in monolayer tissue culture conditions either under standard media conditions or in surrogate tumor environment using tumor conditioned media, sequester bFGF onto the GAGS on platelets and endothelial cells, and thus remove it from the supernatant. […] Values represent means and SE of 5 wells.

In a further assay the test system is EOMA cells and platelets. The experiment in a line: Immunofluorescence, aggregation of platelet PF4 on EOMA cells. The class given is cell-based, murine. Conditions: FIG. 22. The procedure:
Platelet factor 4 (PF4) has one of the highest affinities for HS occurring in nature and can occupy GAG sites and displace other HS binding growth factors. As such, PF4 acts as an inhibitor of tumor growth. FIG. 22 are immunofluorescent images showing that platelets form a provisional matrix that can exchange proteins with endothelial cells upon tumor activation. Murine hemangioendothelioma cells (EOMA) cells were grown in standard media (DMEM+10% FBS), and normal platelets were added. Under normal conditions (top row), PF4 (the main content of platelets α-granules; green and left column) is seen at the periphery (i.e., along the membrane) of the EOMA cells as the platelets aggregate along the cell membrane. Heparan sulphate (red, second from left column) is distributed throughout the membranous surface of the endothelial cell, and DAPI (blue, second from right column) is the nuclear counterstain. In absence of tumor conditioned media, thrombin or other activators of endothelial cell, there is no clumping and aggregation of the platelets. […] However, upon incubation of EOMA cells and platelets in presence of tumor conditioned media (second row), the expression of HS is increased, and a thick platelet provisional matrix is formed as shown by the aggregation of PF4 on the HS rich surface EOMA cell; this platelet provisional matrix is used by EOMA cells for growth. […]

For assay [2], the system named is platelets (platelet rich plasma). The experiment in a line: FACS analysis of growth factor uptake by platelets. The class given is cell-based. Conditions: pretreatment of platelet rich plasma; FGF, PF4, VEGF, TPO; all but thrombopoietin; FIG. 15B. An excerpt: (Inh=inhibitor added, PF4 receptor, a splice variant of the chemokine receptor CXCR3, known as CXCR3B).

For assay [3], the system named is alpha granules of platelets. The experiment in a line: Confocal microscopy, colocalization of Alexa647-labeled peptides with PF4. Particulars: for loading into alpha granules of platelets (Alexa647 intensities per ROI): ROIs selected on PF4 intensity, FIG. 2B. The class given is cell-based. The protocol:
To confirm that the Alexa647-labeled GAG-binding peptides were loaded into alpha granules of platelets, confocal microscopy was used. The platelets that were centrifuged in the experiments of FIG. 1A and FIG. 1B, were fixed in 2% paraformaldehyde and settled onto glass coverslips. After permeabilization, immunofluorescence staining was performed against PF4, which is a marker for alpha granules of platelets. Platelets were stained with Alexa568-secondary antibody. Images were collected through a Nikon-A1 laser-scanning microscope equipped with a 60× oil objective lens.
FIG. 2A are representative images with PF4 staining shown in red (left column) and the Alexa647 signal (from the free Alexa647, Alexa647-labeled GAG-binding peptide, or Alexa647-labeled CFL; middle column) shown in purple. Images were only adjusted for brightness and contrast for display. n>5 images were acquired for each experiment and regions of interest (ROIs) were selected based on PF4 intensity.
The Alexa647 intensities for each ROI were measured using ImageJ and plotted in box and whisker graph using Prism 8.

The next assay concerns isolated platelets. The experiment in a line: Platelet loading of Alexa647-labeled peptides, decrease in fluorescence in supernatant. The class given is cell-based. Particulars: for fluorescence of supernatant, complete versus loaded measurements (platelet loading): Alexa647-labeled peptides co-incubated with isolated platelets at 37° C. for one hour, FIG. 1A; for loading of attached cargo into platelets, loaded condition normalized to its complete condition: FIG. 1B. The procedure:
Alexa647-labeled peptides or Alexa647 alone were co-incubated with isolated platelets at 37° C. for one hour to allow for platelet loading. The respective platelet-loading ability was indicated by a decrease in fluorescence in supernatant following the incubation. For controls, identical experiments were performed without the incubation period (noted as “complete” in the figure). Platelets following co-incubation were then centrifuged at 800 g for 10-minutes to separate platelets from supernatant (noted as “loaded” in the figure).
FIG. 1B represents the data in FIG. 1A normalized for each peptide experiment, i.e., normalization of a loaded condition to its complete condition.

A short description of assay [4]: Isothermal titration calorimetry (ITC) of GAG-binding peptides. Particulars: for affinity for chondroitin sulfate A (dissociation constants by ITC): 22° C., 5 mM Tris-HCl pH 7.35, 1% DMSO, FIG. 3E, 3F. The procedure:
FIG. 3A is a schematic depicting the isothermal titration calorimetry (ITC) experiments performed in this example. Here, chondroitin sulfate A (CSA) was used to test affinities of illustrative GAG-binding peptides for glycosaminoglycan. 3 mM CSA was loaded into a syringe and CSA was titrated into the sample cell withholding a 0.25 mM solution of GAG-binding peptide or a charge-free ligand (CFL), which served as a negative control. Temperature was set at 22° C., the buffer was 5 mM Tris-HCl (pH 7.35), and 1% DMSO.
FIG. 3B to FIG. 3D show graphical representations of ITC dissociation kinetics for CSA titrated into cells withholding PAL1 (FIG. 3B), PAL2 (FIG. 3C), and CFL (FIG. 3D).
The data obtained during the experiments of FIG. 3B and FIG. 3C were used to determine dissociation constants for the CSA and GAG-binding peptide interactions; these were determined through titration curve fitting using sequential binding model.
(§1) Additionally, the binding affinities for the two illustrative GAG-binding peptides, PAL1 and PAL2, to Heparan Sulfate (HS) and Chondroitin Sulfate (CSA) was determined using affinity chromatography. […] The dissociation constants were measured using ITC, the higher it is, the looser the binding is. […] The binding was measured by the elution volume on a Hi-Trap Heparin column attached to a FPLC system. The later the peak occurs, the tighter the binding is. In FIG. 4A, the peptide amino acid sequences including the control peptide (CFL) and the two PALs (PAL1 and PAL2) are shown.
A general note: In ITC the heat of successive injections is recorded.

The test system of assay [5] is alpha-granule subsets of platelets. The experiment in a line: Confocal microscopy, subcellular localization of Alexa647-labelled PAL1 and PAL2 against VEGF and PF4. The class given is cell-based. Conditions: Alexa647-labelled peptides, FIG. 24; for loading into alpha-granule subsets: VEGF and PF4 markers; for preferred colocalization with alpha-granule subset marker: VEGF/PAL and PF4/PAL merged. The procedure:
FIG. 24 are immunofluorescent images showing that PAL1 and PAL2 have different subcellular localizations, i.e., have a preference for distinct alpha-granules. Using VEGF as the marker of one alpha-granule set (green) and PF4 as the marker of the second alpha-granule set (red), the subcellular localization of Alexa647-labelled PAL1 and PAL2 (blue) were recorded on Nikon-Al confocal microscope.
The images FIG. 24 were acquired using Nikon-A1 confocal microscope equipped with a 60× oil immersed objective. PAL1 and PAL2 partially colocalize with both subsets of the alpha-granules as indicated by the cyan and purple pixels in the merged images. To quantify the difference between PAL1 and PAL2, the fractionation of loaded platelets were performed

The test system of the next assay is platelet α-granule. The experiment in a line: Confocal microscopy, loading of Alexa647-PAL1 conjugated Lucitanib. The class given is cell-based. Conditions: one hour at 37° C.; FIG. 26A. The procedure: Platelets were co-incubated with Alexa647-labled Lucitanib or with Alexa647-PAL1 conjugated Lucitanib for one hour at 37° C. The platelets were then spun for 10-minutes at 800 g, fixed in 2% paraformaldehyde, and settled onto glass coverslips. After permeabilization, immunofluorescence staining was performed against PF4 in platelets and further stained with Alexa568-secondary antibody. The images were collected through a Nikon-Al laser-scanning microscope equipped with a 60× oil objective. FIG. 26A includes representative images in which immunofluorescence for PF4 was shown in red and Alexa647 was shown in blue. […] FIG. 26B is a graph showing the averaged intensities of Alexa647 channel for >800 ROIs in each group were analyzed using ImageJ and the error bar is the standard deviation of the mean.

Assay [6] can be described thus: Affinity chromatography of peptides, Hi-Trap Heparin column on FPLC. The class given is binding. Particulars: PAL1 versus PAL2; FIG. 4C. The protocol:
as §1

Ends that are not written are not given here.

With thrombin, the “sequestration of bFGF from the supernatant onto GAGs” value in assay [1] is recorded as “released from the GAGs into the supernatant”. In addition, the “aggregation of platelet PF4 on the HS rich surface of EOMA cells” value with EOMA cells and platelets is “reproduced”.

For Heparin, the “sequestration of bFGF from the supernatant onto GAGs” value in [1] is on record as “further enhance the phenomenon”. In addition, in the assay on EOMA cells and platelets, the “aggregation of platelet PF4 on the HS rich surface of EOMA cells” value is “inhibited”.

For the compound `Cc1cc(N)c2cc(NC(=O)Nc3ccc4nc(C)cc(N)c4c3)ccc2n1` [surfen], the “growth factor uptake by platelets” value in [2] was “significantly inhibits growth factor uptake by platelets”.

In the case of ERRIWFPYRRF [PAL1], the “loading into alpha granules of platelets (Alexa647 intensities per ROI)” value in assay [3] is listed as “facilitates loading of an attached cargo into alpha granules of platelets”. In addition, in the assay with isolated platelets, the “fluorescence of supernatant, complete versus loaded measurements (platelet loading)” value is reported as “decrease in absorbance” and the “loading of attached cargo into platelets, loaded condition normalized to its complete condition” value is “facilitates loading of an attached cargo into platelets”. Moreover, the “affinity for chondroitin sulfate A (dissociation constants by ITC)” value in assay [4] is reported as “high affinity”. Moreover, in assay [4] (PAL1 versus PAL2, FIG. 4B), the “relative binding to CSA (dissociation constants by ITC)” value is “bind CSA tighter than PAL2”. For the same compound, in [5], the “loading into alpha-granule subsets” value was “loaded to both the subsets of alpha-granules” and the “preferred colocalization with alpha-granule subset marker” value is “colocalized more to the VEGF subset”.

Consider “Alexa647-labelled PAL1 conjugated-Lucitanib: Lucitanib conjugated with Alexa647-labelled PAL1 (SEQ ID NO: 1) (ERRIWFPYRRF; also: Alexa647 label, conjugated to Lucitanib, sites not given here)”, for which the “colocalization with PF4 / loading into α-granules” value with platelet α-granule is “colocalization”.

EGGIWFPYGGF [CFL, reference compound]: the “loading into alpha granules of platelets (Alexa647 intensities per ROI)” value in assay [3] is “do not load into platelets”. The “colocalization of alpha granule marker PF4 and Alexa647 signal” value in assay [3] (merged images, FIG. 2A) was “Co-localization was not observed”. In the assay on isolated platelets, the “fluorescence of supernatant, complete versus loaded measurements (platelet loading)” value was “did not change” and the “loading of attached cargo into platelets, loaded condition normalized to its complete condition” value is “unable to direct loading of the cargo into platelets”.

Consider RFRWPYRIREF [PAL2], for which, in [6], the “relative binding to HS (elution volume on Hi-Trap Heparin column)” value is “binds HS tighter than PAL1”. In addition, the “loading into alpha granules of platelets (Alexa647 intensities per ROI)” value in assay [3] was “facilitates loading of an attached cargo into alpha granules of platelets”. In the assay on isolated platelets, the “fluorescence of supernatant, complete versus loaded measurements (platelet loading)” value is “decrease in absorbance” and the “loading of attached cargo into platelets, loaded condition normalized to its complete condition” value is “facilitates loading of an attached cargo into platelets”. Also, in assay [4], the “affinity for chondroitin sulfate A (dissociation constants by ITC)” value is “high affinity”. In assay [5], the “loading into alpha-granule subsets” value was “loaded to both the subsets of alpha-granules” and the “preferred colocalization with alpha-granule subset marker” value is given as “colocalized more to the PF4 channel”.
